Measurements taken from patent US20160051513A1, “USE OF 4-BENZAMIDE IN THE TREATMENT OF NEUROPATHIC PAIN” (LES LABORATOIRES SERVIER, priority 2013, published 2016).
Counter-ions that a name gives are not always drawn.

Tests used:
[1] = system: anxiety associated with the neuropathic pain caused by chronic constriction (CCI) of the sciatic nerve; assay: Anxiety associated with neuropathic pain caused by CCI (time in open parts of cylindrical corridor); type: in vivo; settings: CCI rat, 4 weeks after constriction
Description: The effects of 4-{3-[cis-hexahydrocyclopenta[c]pyrrol-2(1H)-yl]propoxy}benzamide were studied on the anxiety associated with the neuropathic pain caused by chronic constriction (CCI) of the sciatic nerve in the rat.
In this study, the rats are placed for 5 minutes in a cylindrical corridor which has two parts closed off by a wall and two opposite parts which are open. The test creates a conflict between the rodent's natural desire to explore and its fear of open spaces which make it vulnerable to predators. Anxiety is measured in this test by the time spent by the rat in exploring the open parts of the cylindrical corridor (Bleickardt et al. Psychopharmacology (Berl), 2009, 202(4):711-8; Alba-Delgado et al. Biol. Psychiatry, 2013, 73(1):54-62).

[2] = Clinical acceptability profile; type: in vivo, human
[3] = system: model of diabetic neuropathy caused by streptozocin (STZ); assay: Mechanical hyperalgesia (paw pressure vocalisation threshold) in model of diabetic neuropathy caused by streptozocin; type: in vivo, rat; settings: for effect of reference treatments compared with the compound: STZ rats
Description: The effects of 4-{3-[cis-hexahydrocyclopenta[c]pyrrol-2(1H)-yl]propoxy}benzamide and of two reference treatments for neuropathic pain (gabapentin and pregabalin) were studied in the rat, in the model of diabetic neuropathy caused by streptozocin (STZ).
In rats, administration of high-dose STZ (>35 mg/kg) causes diabetes which is similar to hyperglycaemic diabetes mellitus in humans. This is brought about by histopathological changes in the beta cells of islets of Langerhans and is associated with neuropathic pain. This pain is made manifest especially by mechanical hyperalgesia which can be attested by the lowering of the animal's vocalisation threshold when an increasing pressure is applied to the paw (Courteix et al., Pain, 1993, 53(1):81-8). During the test, a weight is placed on the rat's paw; its weight (in grams) increases until the animal vocalises. In this experiment, 21 days after the intraperitoneal injection of STZ (72 mg/kg), the rats develop diabetes characterised especially by hyperglycaemia (controlled during the experiment by injection of insulin) and associated with mechanical hyperalgesia. Indeed, the vocalisation threshold of the rats is lowered by half compared to the threshold which those animals had prior to injection of STZ (FIG. 1).

[4] = system: depression associated with the neuropathic pain caused by CCI; assay: Depression associated with neuropathic pain caused by CCI (duration of immobility in cylinder filled with water); type: in vivo; settings: CCI rat, 4 weeks after constriction
Description: The effects of 4-{3-[cis-hexahydrocyclopenta[c]pyrrol-2(1H)-yl]propoxy}benzamide were studied on the depression associated with the neuropathic pain caused by CCI in the rat. In this study, the rat is placed for 5 minutes in a cylinder filled with water, out of which it is unable to climb. After struggling in the water, the animal becomes immobile, reflecting “behavioural despair”, which occurs when the animal realises that it will not be able to escape. Depressive behaviour is measured in this test by the duration of immobility.

[5] = system: thermal allodynia after administration of oxaliplatin (OXA); assay: Thermal (cold) allodynia, tail withdrawal time in cold bath at 10° C, model of neuropathy caused by oxaliplatin; type: in vivo, rat; settings: for reversal of the allodynia (tail withdrawal time versus before the procedure): oxaliplatin 6 mg/kg i.p.
Source text: The effects of 4-{3-[cis-hexahydrocyclopenta[c]pyrrol-2(1H)-yl]propoxy}benzamide and of two reference treatments for neuropathic pain (gabapentin and pregabalin) were studied on the thermal allodynia which occurs in rats after administration of oxaliplatin (OXA). Oxaliplatin is a synthetic anticancer medication from the group of agents derived from platinum, especially used in the treatment of cancers of the colon and rectum.
In the rat, acute administration of oxaliplatin specifically causes cold hyperalgesia and allodynia in the subsequent 24 hours, which lasts for several days. This animal model therefore closely mimics the painful symptoms observed in humans after infusion of oxaliplatin, especially the rapid appearance of intense sensory disturbances caused by cold, of the hyperalgesic and allodynic type (Ling et al. Toxicology. 2007; 234(3):176-84).
The results of this study confirm that, 36 hours after acute intraperitoneal administration of oxaliplatin (6 mg/kg), the rats develop cold allodynia, reflected by very rapid withdrawal of their tail when it is placed in a cold bath at 10° C. Indeed, this withdrawal time is, on average, half as long as that of the rats before administration of oxaliplatin (FIG. 3).

[6] = system: mechanical hyperalgesia caused by chronic constriction (CCI) of the sciatic nerve; assay: Mechanical hyperalgesia (vocalisation threshold) in CCI model, compound and agomelatine on their own or in association; type: in vivo, rat; settings: every day for 5 days, S 0.3 mg of base/kg per os, agomelatine 10 mg/kg i.p., alone or in association
Description: The effects of 4-{3-[cis-hexahydrocyclopenta[c]pyrrol-2(1H)-yl]propoxy}benzamide and agomelatine, administered on their own or in association, were studied on the mechanical hyperalgesia caused in the rat by chronic constriction (CCI) of the sciatic nerve (see Example B).
The vocalisation threshold was measured in the animals every day for 5 days, before and 45 minutes after the administration of 4-{3-[cis-hexahydrocyclopenta[c]pyrrol-2(1H)-yl]-propoxy}benzamide hydrochloride at a dose of 0.3 mg of base/kg per os (the compound being referred to as S in FIG. 4) and agomelatine at a dose of 10 mg/kg i.p., on their own or in association.

[7] = system: mechanical hyperalgesia caused by chronic constriction (CCI) of the sciatic nerve; assay: Mechanical hyperalgesia (vocalisation threshold) in model of neuropathy caused by chronic constriction (CCI) of the sciatic nerve; type: in vivo, rat; settings: for reversal of the hyperalgesia (vocalisation threshold versus before the procedure): after 4 days of chronic treatment
Source text: The effects of 4-{3-[cis-hexahydrocyclopenta[c]pyrrol-2(1H)-yl]propoxy}benzamide and of gabapentin were studied on the mechanical hyperalgesia caused in the rat by chronic constriction (CCI) of the sciatic nerve.
This model of post-traumatic neuropathic pain closely reproduces the symptoms of neuropathic pain which can be observed in humans, namely mechanical and thermal hyperalgesia, mechanical allodynia and spontaneous pain (Bennett and Xie, Pain, 1988, 33(1):87-107; Munger et al., Exp Neurol, 1992, 118(2):204-14; Kim et al., Brain Res, 1997, 113(2):200-6.).

| SMILES | reversal of the allodynia (tail withdrawal time versus before the procedure) [5] | anti-hyperalgesic effect (vocalisation threshold), chronic administration [6] | reversal of the hyperalgesia (vocalisation threshold versus before the procedure) [7] | effect of reference treatments compared with the compound [3] | further results |
| --- | --- | --- | --- | --- | --- |
| NC(=O)c1ccc(OCCCN2C[C@H]3CCC[C@H]3C2)cc1 [4-{3-[cis-hexahydrocyclopenta[c]pyrrol-2(1H)-yl]-propoxy}benzamide] | – | – | – | – | effects on the anxiety associated with the neuropathic pain [1]: beneficial effects; acceptability profile ([2]; healthy volunteers): good acceptability profile; acceptability profile ([2]; patients suffering from Alzheimer's disease): good acceptability profile; beneficial effect on vocalisation threshold over time ([3]; administered every day for 5 days): maintained over time; effects on the depression associated with the neuropathic pain [4]: beneficial effects |
| NC(=O)c1ccc(OCCCN2C[C@H]3CCC[C@H]3C2)cc1 [S, 4-{3-[cis-hexahydrocyclopenta[c]pyrrol-2(1H)-yl]propoxy}benzamide hydrochloride] | complete reversal of the allodynia | moderate anti-hyperalgesic effect | complete reversal of the hyperalgesia | – | anti-allodynic effect (tail withdrawal time, cold bath 10° C) ([5]; 36 hours after oxaliplatin 6 mg/kg i.p., 0.3 mg of base/kg per os, from D1, 1 hour after a single administration): significant anti-allodynic effect; value of the vocalisation threshold relative to non-diabetic animals ([3]; 3 mg of base per kg per os, from the second day of administration): the same as that of non-diabetic animals; vocalisation threshold compared to animals having been given the carrier ([3]; STZ 72 mg/kg i.p., 21 days after, 3 mg of base per kg per os): substantial and significant increase in the vocalisation threshold; anti-hyperalgesic effect (vocalisation threshold) ([7]; 12 days after CCI, 1 mg of base/kg per os): significant anti-hyperalgesic effect |
| COc1ccc2cccc(CCNC(C)=O)c2c1 [agomelatine, reference compound] | – | moderate and very inconstant anti-hyperalgesic effect | – | – | – |
| NCC1(CC(=O)O)CCCCC1 [gabapentin, reference compound] | rapid reversal is also observed | – | reversal is also observed | entirely comparable | – |
| CC(C)C[C@H](CN)CC(=O)O [pregabalin, reference compound] | rapid reversal is also observed | – | – | entirely comparable | – |
